Results as given in patent US20250270170A1, “2,3-DIMETHOXY-5-METHYL-1,4-BENZOQUINONE ALKYL ALCOHOL DERIVATIVE AND USE THEREOF” (BEIJING ANJIANXI BIO-MEDICAL TECHNOLOGY CO., LTD., priority 2021, published 2025).
Marks after values point to notes of the source that are not given here.

Tested on: human esophageal cancer ECA109 transplanted tumor
Assay: Example 8: tumor growth in ECA109 transplanted tumor model
Type: in vivo, nude mice
Conditions: DDP 5 mg/kg i.p. QW×4
Source text: The assay animals, calculation of tumor volume (TV), end of assay, data recording, calculation formula of tumor growth inhibition rate TGI (%), and statistical analysis method were the same as those in Example 3; the preparation of the administration formulation of the compound of formula (I) was the same as that in Example 5. An appropriate amount of CMC-Na solid was weighed, and an appropriate volume of deionized water was firstly added. The mixture was vortexed and stirred until the solid was completely dispersed and evenly distributed, to give a 0.5% CMC-Na aqueous solution, which was stored at 2 to 8° C. in a refrigerator. An appropriate amount of DDP was weighed and put into a glass bottle, and an appropriate amount of physiological saline was added to the bottle. […] This solution was prepared before each administration. Human esophageal cancer cells ECA109 were obtained from the Cell Bank of Wuhan University (CCTCC, cryopreserved in liquid nitrogen in the laboratory). […] The cells were pipetted with a pipette to disperse them evenly, and the cells were put into a 50-mL centrifuge tube, which was placed in an ice box. A 1-mL syringe was used to draw the cell suspension, which was injected subcutaneously into the axilla of the front right limb of a […]. Each animal was inoculated with 200 μL (1.0×10^7 cells/mouse) to establish an ECA109 transplanted tumor model in nude mice. After the inoculation, the animal status and tumor growth were regularly observed, and the tumor diameter was measured using an electronic vernier caliper. The data were input into an Excel spreadsheet to calculate the tumor volume. When the tumor volume reached 100 to 300 mm^3, animals in good health and with similar tumor volumes were selected and divided into groups using randomized block method. The day of grouping was regarded as the first day of the assay (D1). After the start of the assay, the tumor diameter was measured twice a week, the tumor volume was calculated, and the animal body weight was also weighed and recorded. [table]

N.N.[Cl][Pt][Cl] [DDP, cisplatin]
Mean tumor volume (D1): 193 ± 9 mm^3
Mean tumor volume (D5): 204 ± 5 mm^3
tumor growth inhibition rate (TGI) (D5): (64%)
Mean tumor volume (D8): 203 ± 11** mm^3
tumor growth inhibition rate (TGI) (D8): (87%)
Mean tumor volume (D12): 215 ± 10** mm^3
tumor growth inhibition rate (TGI) (D12): (79%)
Mean tumor volume (D15): 224 ± 8** mm^3
tumor growth inhibition rate (TGI) (D15): (79%)
Mean tumor volume (D19): 247 ± 8** mm^3
tumor growth inhibition rate (TGI) (D19): (67%)
Mean tumor volume (D22): 259 ± 8** mm^3
tumor growth inhibition rate (TGI) (D22): (63%)
Mean tumor volume (D26): 276 ± 9** mm^3
tumor growth inhibition rate (TGI) (D26): (58%)
Mean tumor volume (D29): 285 ± 9** mm^3
tumor growth inhibition rate (TGI) (D29): (59%)
Mean tumor volume (D33): 259 ± 12** mm^3
tumor growth inhibition rate (TGI) (D33): (73%)
Mean tumor volume (D36): 292 ± 11** mm^3
tumor growth inhibition rate (TGI) (D36): (60%)
